Assay results from the NIST ThermoML archive (doi:10.1016/j.jct.2017.01.011).
Numbers after ± are expanded uncertainties.

How the values were obtained:
[1] = xn = mol fraction of the nth substance listed; settings: 100 kPa, Liquid, x1 = 1; for speed of sound: Frequency=3 MHz, Single path-length method; for mass density: Vibrating tube method
[2] = 100 kPa, Liquid; for speed of sound: Frequency=3 MHz, Single path-length method; for mass density: Vibrating tube method

Row | SMILES | speed of sound ([1]; 283.15 K) [m/s] | mass density ([1]; 283.15 K) [kg/m3] | speed of sound ([1]; 293.15 K) [m/s] | mass density ([1]; 293.15 K) [kg/m3] | speed of sound ([1]; 303.15 K) [m/s] | mass density ([1]; 303.15 K) [kg/m3] | speed of sound ([1]; 313.15 K) [m/s] | mass density ([1]; 313.15 K) [kg/m3] | speed of sound ([2]; 283.15 K) [m/s] | mass density ([2]; 283.15 K) [kg/m3] | speed of sound ([2]; 293.15 K) [m/s] | mass density ([2]; 293.15 K) [kg/m3] | speed of sound ([2]; 303.15 K) [m/s] | mass density ([2]; 303.15 K) [kg/m3] | speed of sound ([2]; 313.15 K) [m/s] | mass density ([2]; 313.15 K) [kg/m3]
1 | CCO [ethanol] + OCC(O)CO | 1196.8 ± 4.1 | 798 ± 1 | 1162.3 ± 4.1 | 790 ± 1 | 1128.2 ± 4.1 | 781 ± 1 | 1094.5 ± 4.1 | 772 ± 1 | – | – | – | – | – | – | – | –
2 | OCC(O)CO [glycerol] | – | – | – | – | – | – | – | – | 1942.3 ± 6.1 | 1267 ± 1 | 1922.9 ± 6.1 | 1261 ± 1 | 1901 ± 6.1 | 1255 ± 1 | 1879.3 ± 6.1 | 1248 ± 1
3 | CO [methanol] + OCC(O)CO | 1153.3 ± 4.1 | 801 ± 1 | 1119.6 ± 4.1 | 791 ± 1 | 1086.6 ± 4.1 | 782 ± 1 | 1054.2 ± 4.1 | 772 ± 1 | – | – | – | – | – | – | – | –
